Laboratory results published in US6060472A, “Thiadiazole compounds useful as inhibitors of H^+ /K^+ atpase” (Apotex Inc., priority 1998, dated 2000).

Assays:
[1] = test system: isolated murine gastric glands of mouse (acid secretion); assay: In vitro inhibition of gastric acid secretion (14C-aminopyrine accumulation in isolated mouse gastric glands); format: cell-based; conditions: 1 h, 60 min at 37 °C, secretagogue stimulated
Description: In Vitro Inhibition of Gastric Acid Secretion by Compounds of Formula I
Acid secretion is measured indirectly by the accumulation of the weak base ^14 C-aminopyrine in the isolated murine gastric glands of mouse. The assay is performed in polypropylene eppendorf tubes containing 0.5 mL of resuspended mouse gastric glands. In addition, tubes contain the tested drug, acid secretagogues (e.g. histamine, di-butyryl cyclic AMP (cAMP), carbachol) and ^14 C-aminopyrine. Tubes are incubated for 60 min. at 37 ° C. and continuously rotated. The reaction is stopped by centrifugation of the gland suspension for five min. at 1500 g. Supernatant is aspirated leaving the pellet containing intact gastric glands. The pellet is washed extensively and digested overnight in 1 mL of Protosol (Amersham). After neutralisation with acetic acid and addition of scintillation fluid, the radioactivity is counted in a beta-counter (Beckman). The amount of radioactivity trapped in the pellet corresponds directly with the amount of acid being secreted. Each experimental point is done in triplicate. In each experiment, energy independent consumption was estimated with 0.1 mM of dinitrophenol and basal acid secretion in the absence of acid stimulants. These values were then subtracted from corresponding results in order to calculate basal or secretagogue stimulated acid secretion.
Mouse glands respond to a variety of conventional secretagogues and post-receptor mediators but not to gastrin. The maximum stimulation of acid secretion is achieved with 1 mM cAMP, 0.1 mM histamine, 0.1 mM IBMX, 10 μM carbachol, 10 μM forskolin, 10 μM calcium ionophore A23187, 1 μM thapsigarin. Each experiment is repeated a number of times and all results are expressed as a % of the maximum stimulation. For the purpose of comparing the relative potency of the compounds, each experiment contains positive controls using omeprazole for post-receptor/cAMP mediated responses and ranitidine which inhibits histamine mediated acid secretion.
Using the above procedure, the IC50 value for these compounds were as follows: […]

gastric acid secretion = assay: Gastric secretion study in rat (pylorus ligation); format: in vivo, Male Sprague-Dawley rats; conditions: oral gavage, pylorus-ligated rat, 2 hours post ligation; for Average total gastric contents: Control 2.5; for Average total acid output: Control 298
Description: Gastric Secretion Study in Rat The objective of the study was to establish the antisecretory effects of two experimental compounds compared to Omeprazole. Male Sprague-Dawley rats (110 to 140 g in weight) were ordered from Ace Animals, Inc., Boyertown Pa. and were randomized into […] groups. The Control animals were administered carboxymethylcellulose (CMC) as the treated groups were administered the test materials in a suspension of CMC. Two groups were allotted to a reference standard of Omeprazole and were administered doses of 2 and 8 mg/kg. The other 4 dose groups were allotted to the 2 experimental compounds at doses of 8 and 32 mg/kg. All test materials were administered by oral gavage as this is the intended route in humans. Each animal was dosed using a stainless steel ball-tipped gavage needle attached to an appropriate size syringe. All doses administered were based on fasted body weights taken prior to the dosing. Two hours post drug administration, the animals were anesthetized using a short acting general anesthetic (Methoxital Sodium). The midline incision was made and the gastric duodenal area exposed. A ligature of thread was placed around the pylorus and tied tightly. This ligature around the pylorus stimulates the production of gastric acid. The incision was closed post ligation and the animal was replaced in its cage without access of food or water. All rats were euthanized 2 hours post pylorus ligation using an overdose of sodium pentobarbital. The esophagus was ligated and the intact stomach was removed and opened along the great curvature. Gastric contents were collected in a plastic cup and transferred to a 15 ml conical tube. The contents were centrifuged for approximately 10 minutes. The supernatant was decanted and the volume was measured to the nearest tenth of a milliliter. 1 ml of the gastric contents were pipetted into 4 ml of distilled water and titrated with 0.01 N sodium hydroxide to a pH of 7.0. The acidity was measured by titration and the total acid output calculated.

Structure (SMILES) | IC50 [1] | Average total gastric contents (gastric acid secretion; 2 mg/kg) | Average total acid output (gastric acid secretion; 2 mg/kg) | Average total gastric contents (gastric acid secretion; 8 mg/kg) | Average total acid output (gastric acid secretion; 8 mg/kg) | Average total gastric contents (gastric acid secretion; 32 mg/kg) | Average total acid output (gastric acid secretion; 32 mg/kg)
O=C(c1ccccc1)c1nsc(N2CCN(C(c3ccccc3)c3ccc(Cl)cc3)CC2)n1 (stereo not drawn) [3-benzoyl-5-{4-[1-phenyl-1-(4-chlorophenyl)methyl]piperazin-1-yl}-1,2,4-thiadiazole] | 50 µM | – | – | – | – | – | –
OC(c1ccccc1)c1nsc(N2CCN(c3ccccn3)CC2)n1 (stereo not drawn) [3-(1-hydroxy-1-phenylmethyl)-5-{4-[pyridin-2-yl]-piperazin-1-yl}-1,2,4-thiadiazole] | 30 µM | – | – | – | – | – | –
COc1nsc(N2CCN(c3ccccn3)CC2)n1 [3-methoxy-5-{4-[pyridin-2-yl]-piperazin-1-yl}-1,2,4-thiadiazole] | 100 µM | – | – | – | – | – | –
O=C(c1ccccc1)c1nsc(N2CCN(c3ccccn3)CC2)n1 [3-benzoyl-5-{4-[pyridin-2-yl]-piperazin-1-yl}-1,2,4-thiadiazole] | 6 µM | – | – | – | – | – | –
COc1ccc2[nH]c([S+]([O-])Cc3ncc(C)c(OC)c3C)nc2c1 (stereo not drawn) [Omeprazole, reference compound] | – | 2.2 mL | 296 µEq | 1.9 mL | 164 µEq | – | –
O=C(c1cccc(Cl)c1)c1nsc(N2CCN(c3ccccn3)CC2)n1 [3-(3-chlorobenzoyl)-5-{4-[pyridin-2-yl]-piperazin-1-yl}-1,2,4-thiadiazole] | 25 µM | – | – | 1.9 mL | 159 µEq | 2.9 mL | 271 µEq
c1ccc(-c2nsc(N3CCN(c4ccccn4)CC3)n2)cc1 [3-phenyl-5-{4-[pyridin-2-yl]-piperazin-1-yl}-1,2,4-thiadiazole] | 4 µM | – | – | 2.2 mL | 223 µEq | 1.2 mL | 100 µEq
